Measured values from ChEMBL document CHEMBL1201862, “PubChem BioAssay data set” (2004).
The source made the active and inactive calls.

Experiments:
[1] = reduced cellular PGC1a acetyl-lysine signal – cell-based, cherry-picked samples, dose response (AID 720514); type: functional;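 note: potency may reflect raised or lowered acetylation signal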
[2] = target: T1, Oxysterols receptor LXR-beta (Homo sapiens, UniProt P55055); assay: LXR agonists, Gal4 luciferase reporter, dose response, counter-screen for ssDAF-12 agonist project, cell-based, luminescence, HEK293, S. stercoralis campaign (AID 720737); type: functional; conditions: read-out: IC50 (the source's name)
T1 sequence (P55055 whole entry): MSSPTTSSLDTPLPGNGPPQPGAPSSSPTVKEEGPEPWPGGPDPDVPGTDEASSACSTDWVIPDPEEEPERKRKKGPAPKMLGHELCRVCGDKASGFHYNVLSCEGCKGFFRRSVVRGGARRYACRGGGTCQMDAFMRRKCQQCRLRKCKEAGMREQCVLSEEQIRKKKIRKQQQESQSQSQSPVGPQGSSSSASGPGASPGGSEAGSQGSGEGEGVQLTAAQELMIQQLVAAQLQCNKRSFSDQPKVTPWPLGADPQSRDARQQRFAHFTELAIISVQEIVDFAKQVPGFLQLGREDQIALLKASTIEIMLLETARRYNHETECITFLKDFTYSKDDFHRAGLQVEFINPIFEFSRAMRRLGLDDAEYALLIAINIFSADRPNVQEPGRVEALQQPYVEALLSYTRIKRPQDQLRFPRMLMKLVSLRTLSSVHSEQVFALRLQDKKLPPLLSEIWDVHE

[3] = Luminescence-based cell-based high throughput dose response assay to identify activators of the DAF-12 from the parasite S. stercoralis (ssDAF-12).; type: functional
[4] = glucagon-like peptide-1 release potency in STC-1, concentration-response, half-maximal inhibitory concentration in the STC-1 line (AID 1117345); type: functional, cell-based
[5] = cytotoxicity toward HT-29 cells – cell-based, CellTiter-Glo luminescence, IC50, dose response (AID 1117330); type: functional
[6] = CellTiter-Glo luminescence survival assay, SW480 colon tumor line, concentration-response curve, half-maximal inhibitory concentration (AID 1117338); type: functional
[7] = SNU-C1 cell viability reduction, dose response, CellTiter-Glo luminescence (AID 1117323); type: functional, cell-based
[8] = Potency on glucagon-like peptide 1 release, dose-response in NCI-H716 cell line, half maximal inhibitory concentration (AID 1117344); type: functional, cell-based
[9] = HCT116 cell viability decrease, GSK3B pretreatment – CellTiter-Glo, IC50, dose response (AID 1117339); type: functional; conditions: HCT-116
[10] = rise of 4N DNA cells, HeLa – IC50, dose response (AID 1117351); type: functional, cell-based
[11] = RKO cell viability reduction, dose response, CellTiter-Glo luminescence (AID 1117322); type: functional
[12] = cytotoxicity toward Colo320 cells – cell-based, CellTiter-Glo luminescence, IC50, dose response (AID 1117334); type: functional; conditions: COLO 320
[13] = Reduced DLD-1 viability, concentration-response, CellTiter-Glo luminescence (AID 1117352); type: functional
[14] = rise of 2N DNA cells, HeLa – IC50, dose response (AID 1117349); type: functional, cell-based
[15] = cytotoxicity toward HCT116 cells – cell-based, CellTiter-Glo luminescence, IC50, dose response (AID 1117332); type: functional; conditions: HCT-116
Vasopressin V2 receptor = Vasopressin V2 receptor (Homo sapiens, UniProt P30518); assay: Late-stage results from the probe development effort to identify antagonists of arginine vasopressin receptor 1a (AVPR1a): fluorescence-based cell-based dose response AVPR2 inhibition counterscreen assay.; type: functional
[16] = Late-stage results from the probe development effort to identify antagonists of arginine vasopressin receptor 1a (AVPR1a): fluorescence-based cell-based dose response OXTR inhibition counterscreen assay.; type: functional
[17] = Late-stage results from the probe development effort to identify antagonists of arginine vasopressin receptor 1a (AVPR1a): fluorescence-based cell-based dose response AVPR1a inhibition assay.; type: functional
Vasopressin V1b receptor = Vasopressin V1b receptor (Homo sapiens, UniProt P47901); assay: Late-stage results from the probe development effort to identify antagonists of arginine vasopressin receptor 1a (AVPR1a): fluorescence-based cell-based dose response AVPR1b inhibition counterscreen assay.; type: functional
Vero [18] = assay: mammalian cell viability reduction – secondary assay, cytotoxicity control for West Nile virus antiviral project, dose response (AID 1650); type: functional; conditions: Chlorocebus sabaeus
Vero [19] = assay: cells; type: functional; conditions: Chlorocebus sabaeus
[20] = viability loss in THP-1 monocytes – THP-1 cells, cytotoxicity control for Vif-APOBEC3G degradation inhibitor project, dose response (AID 1117359); type: functional; conditions: THP-1
[21] = viability of uninfected HEp-2 cells – cell-based, HTS, cytotoxicity control for RSV inhibitor project, dose response (AID 2410); type: functional; conditions: human respiratory syncytial virus
[22] = target: G-protein coupled receptor 183 (Homo sapiens, UniProt P32249); assay: SAR confirmation of small molecule antagonists of the EBI2 receptor via a luminescent beta-arrestin assa.; type: functional
[23] = Orthopox viral replication plaque formation Measured in Cell-Based and Microorganism Combination System Using Imaging - 2142-05_Inhibitor_Dose_DryPowder_Activity.; type: functional

Sequence of Vasopressin V1b receptor (P47901 whole entry): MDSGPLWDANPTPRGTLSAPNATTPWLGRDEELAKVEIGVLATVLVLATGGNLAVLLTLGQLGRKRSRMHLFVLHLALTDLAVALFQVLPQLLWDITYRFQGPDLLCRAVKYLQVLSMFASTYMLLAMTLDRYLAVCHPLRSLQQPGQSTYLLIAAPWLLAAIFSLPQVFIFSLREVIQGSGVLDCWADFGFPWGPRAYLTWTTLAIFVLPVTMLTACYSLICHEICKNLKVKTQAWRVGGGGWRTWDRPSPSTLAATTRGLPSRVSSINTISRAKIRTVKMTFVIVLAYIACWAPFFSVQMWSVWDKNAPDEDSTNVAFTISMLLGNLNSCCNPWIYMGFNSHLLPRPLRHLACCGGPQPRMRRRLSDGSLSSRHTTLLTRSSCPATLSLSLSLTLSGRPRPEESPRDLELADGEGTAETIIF
Sequence of Vasopressin V2 receptor (P30518 whole entry): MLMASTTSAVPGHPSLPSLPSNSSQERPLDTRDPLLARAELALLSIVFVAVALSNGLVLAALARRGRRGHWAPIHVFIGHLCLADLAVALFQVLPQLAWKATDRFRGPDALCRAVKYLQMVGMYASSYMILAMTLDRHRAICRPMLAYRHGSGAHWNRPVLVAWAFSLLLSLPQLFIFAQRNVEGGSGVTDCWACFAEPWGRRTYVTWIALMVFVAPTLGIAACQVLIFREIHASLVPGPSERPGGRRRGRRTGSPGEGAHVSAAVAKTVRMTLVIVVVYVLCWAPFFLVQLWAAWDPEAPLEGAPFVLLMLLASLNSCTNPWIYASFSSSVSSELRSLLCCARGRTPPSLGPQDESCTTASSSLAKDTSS
Sequence of G-protein coupled receptor 183 (P32249 whole entry): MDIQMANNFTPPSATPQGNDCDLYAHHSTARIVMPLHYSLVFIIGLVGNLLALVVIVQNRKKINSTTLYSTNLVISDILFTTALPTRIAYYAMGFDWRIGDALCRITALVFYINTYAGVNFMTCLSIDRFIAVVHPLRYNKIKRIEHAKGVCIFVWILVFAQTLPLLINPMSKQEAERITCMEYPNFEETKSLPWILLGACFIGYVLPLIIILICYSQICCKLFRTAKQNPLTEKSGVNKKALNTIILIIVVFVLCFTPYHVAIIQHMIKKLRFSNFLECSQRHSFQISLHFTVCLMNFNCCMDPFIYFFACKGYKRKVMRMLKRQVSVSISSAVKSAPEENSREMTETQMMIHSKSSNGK

## N#Cc1c(N)c(C(=O)c2ccccc2)n2ccccc12
[1]
  AC50: 25.7 µM (active)

## COc1ccc(C(=O)c2ccccc2)cc1
[2]
  EC50: > 67.6 µM (inactive)
[3]
  IC50: > 67.6 µM (inactive)

## Oc1ccc([C@H]2CNCc3c2ccc(O)c3O)cc1O
[4]
  IC50: > 20 µM (inactive)
[5]
  IC50: > 20 µM (inactive)
[6]
  IC50: > 20 µM (inactive)
[7]
  IC50: > 20 µM (inactive)
[8]
  IC50: 5.95 µM (inactive)
[9]
  IC50: 0.188 µM (active)
[10]
  IC50: > 10 µM (inactive)
[11]
  IC50: 0.0332 µM (active)
[12]
  IC50: 0.466 µM (active)
[13]
  IC50: > 20 µM (inactive)
[14]
  IC50: > 10 µM (inactive)
[15]
  IC50: > 20 µM (inactive)

## COc1ccc(N(CC2CC2)C(=O)N2CCN(c3ccccc3C)CC2)cc1
Vasopressin V2 receptor
  IC50: 3.51 µM (active)
[16]
  IC50: 0.051 µM (active)
[17]
  IC50: 0.0038 µM (active)
Vasopressin V1b receptor
  IC50: 5.8 µM (active)

## COc1ccc(C(=O)N/N=C/C23CC[C@@H](O)CC2(O)CC[C@@H]2[C@@H]3CCC3(C)C(C4=CC(=O)OC4)CCC23O)cc1 (stereo not given in full)
Vero [18]
  CC50: 43.5 µM (active)
Vero [19]
  CC50: 22.1 µM (active)
[20]
  CC50: 10.4 µM (active)
[21]
  CC50: 12.5 µM (active)

## O=C(/C=C/c1ccc(Br)cc1)N1CCN(C(=O)C2CCCC2)CC1
[22]
  IC50: 0.00441 µM (active)

## C[C@@H](O)C#Cc1ccc2c(c1)O[C@@H](CN(C)S(=O)(=O)c1ccc(-c3ccccc3)cc1)[C@@H](C)CN([C@@H](C)CO)S2(=O)=O
[23]
  AC50: 12.3 µM (active)
